Data taken from paper PMC2873402, “Discovery of High-Affinity Protein Binding Ligands – Backwards” (PLoS ONE, 2010).
Bridge positions count the residues as written; N and C are the ends. Ends that are not written are not given here. I, II: the chains in the order shown. * marks the point of attachment. StBu = CC(C)(C)S*

Test system: AKT2
Test: Protein array (ProtoArray), binding to AKT2
Parameters: species or system human
Description: Synbodies were screened on an Invitrogen ProtoArray™ (Life Technologies, Carlsbad, CA, USA) detected with Alexa-555 labeled streptavidin (Life Technologies), and scanned using a Perkin Elmer ProScan Array HTP. The spots were analyzed using GenePix Pro (Molecular Devices, Sunnyvale, CA, USA) and data were processed using Genespring GX (Agilent Technologies, Santa Clara, CA, USA). Synbodies were labeled with biotin using either Maleimide-PEG2-Biotin (Thermo Pierce, Rockford, IL, USA) to label the C-terminal cysteine or biotin was incorporated during synbody synthesis by replacing the C-terminal cysteine with Lys-biotin (Novabiochem, San Diego, CA, USA). Synbodies were screened on the array using the recommended protocol with the following modifications: the arrays were blocked with 5 mL blocking buffer (50mM HEPES pH 7.5, 200 mM NaCl, 0.08% Triton X-100, 25% Glycerol, 20mM reduced Glutathione, 1.0mM DTT, 1% BSA) for 90 min. A 200 nM synbody solution was incubated in probing buffer (1× PBS, 1% BSA, 0.1% Tween) for 90 minutes. Slides were dried by centrifugation at 200g for 1 minute and scanned at 100% laser power and 70% photomultiplier voltage. The gal file was obtained for each array by submitting the barcode of the array to www.invitrogen.com/protoarray.
Heat maps were constructed using median-normalized data from each ProtoArray. […]

## I: AHKVVPQRQIRHAYNRYGSGKC(StBu)-NH2 / II: FRGWAHIFFGPHVIYRGGSG (amide I:21-II:C) [synbody]
  binding to AKT2 on protein array: little binding
